Measurements: article PMC3201759 (Journal of proteome research, 2011)
Read-outs that look alike come from different tables or passages of the source.

Molecular target: T1, mouse Oat1 (mOat1; Oat1/Slc22a6) (Mus musculus, UniProt Q8VC69)
T1 sequence (Q8VC69 1-545): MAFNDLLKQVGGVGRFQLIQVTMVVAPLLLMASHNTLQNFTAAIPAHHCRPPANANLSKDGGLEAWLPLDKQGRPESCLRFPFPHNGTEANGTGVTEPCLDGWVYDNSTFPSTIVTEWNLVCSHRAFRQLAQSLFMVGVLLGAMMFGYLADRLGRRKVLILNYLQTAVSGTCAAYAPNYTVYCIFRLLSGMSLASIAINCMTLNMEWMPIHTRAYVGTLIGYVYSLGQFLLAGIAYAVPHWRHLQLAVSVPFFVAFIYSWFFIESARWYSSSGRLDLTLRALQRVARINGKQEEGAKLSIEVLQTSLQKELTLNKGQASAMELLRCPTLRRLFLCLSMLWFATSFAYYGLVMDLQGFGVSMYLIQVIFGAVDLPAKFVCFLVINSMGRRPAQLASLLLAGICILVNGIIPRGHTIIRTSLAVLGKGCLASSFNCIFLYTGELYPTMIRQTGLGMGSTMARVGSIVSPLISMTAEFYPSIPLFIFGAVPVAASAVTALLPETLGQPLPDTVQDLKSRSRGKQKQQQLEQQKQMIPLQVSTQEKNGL
Assay: inhibition of 6-carboxyfluorescein uptake, Xenopus oocytes
Type: cell-based

Row | Compound | IC50 (30 μM 6-carboxyfluorescein tracer, 1 h incubation) | IC50
1 | O=c1c2ncccc2[nH]c2c([N+](=O)[O-])c(O)c([N+](=O)[O-])c(O)c12 [CAS 5435-73-4] | 22 µM | –
2 | Nc1ccccc1C(=O)C[C@H](N)C(=O)O [kynurenine] | – | 12 µM
3 | O=C(O)c1cc(O)c2cccc(O)c2n1 [xanthurenic acid] | – | 50 µM
